According to patent US20220031690A1, “ANTI-NEURODEGENERATIVE DISEASE AGENT” (Hayashibara Co., Ltd., priority 2018, published 2022):

Tests used:
PC12-HS cells [1] = assay: Evaluation method B: neurite-outgrowth promoting activity in the presence of NGF; format: cell-based, rat; conditions: for Action on PC12-HS neurite-outgrowth promotion (500 ng/ml) / Neurite-outgrowth rate (%): NGF 10 ng/ml; for Action on PC12-HS neurite-outgrowth promotion (500 ng/ml): 3 days, class of neurite-outgrowth rate
Source text: (§1) As a model of the nerve cell, the NGF (nerve growth factor) highly sensitive strain of PC12 cell derived from the rat adrenal pheochromocytoma (hereinafter referred to as “PC12-HS cell”; JCRB cell bank, National Research and Development Institute of Health and Nutrition), which has been widely used as a suitable model for research on human neurodegenerative disease, was used. As the test compound, […] of trimethine cyanine dye compounds; NK-5 (Chemical formula 2), NK-36 (Chemical formula 3), NK-44 (Chemical formula 5) and dye compounds represented by Chemical formulae 12 to 18, and NK-6 (Chemical formula 7), which is a monomethine cyanine dye, were selected. In addition, two kinds of ethylene cross-linked dyes (Chemical formulae 19 and 20), 15 kinds of monomethine cyanine dyes (Chemical formulae 21 to 35), and seven kinds of trimethine cyanine dyes (Chemical formulae 36 to 42), which were expected to have a good neurocyte growth acceleration activity and/or neurite-outgrowth promoting activity in the screening disclosed in Patent literature 6, were also re-evaluated for comparison. The Chemical formulae 12 to 42 are shown below.
(§2) The cyanine dye compounds subjected to the test (purity 97% by mass or more, synthesized by Hayashibara Co., Ltd., Okayama, Japan) were individually dissolved in DMSO (product number “D8418”, commercialized by SIGMA Corporation) at a concentration of 5 mg/ml, and the solutions were then filtered through DMSO-resistant membrane (“Millex-LGS LLG025SS”, commercialized by Millipore Corporation) and stored at 25° C. in a dark condition. At the time of use, they were further diluted with Dulbecco's Medium (hereinafter, abbreviated as “D-MEM medium”, commercialized by Nissui Pharmaceutical Co., Ltd.) supplemented by 10% by volume of fetal bovine serum (FBS), and subjected to the test.
As in the case of evaluation of neurocyte growth accelerating activity (Evaluation method A), 50 μl/well of each test compound solution, prepared by diluting with the culture medium to give a final concentration of 500 ng/ml, and the culture medium containing 20 ng/ml of mouse NGF (mouse derived, final concentration 10 ng/ml, commercialized by Chemicon International, Inc., CA, USA) (50 μl/well) were added to the precultured PC12-HS cells in each well, and then cultured for three days. Culture medium was removed on day 3 of culture, and cells were fixed by adding 100 μl/well of 10% by volume of glutaraldehyde and standing for 20 minutes at room temperature. As a negative control, PC12-HS cells, cultured for three days with culture medium, were fixed with glutaraldehyde similarly as above. Fixed cells were observed under a microscope to assess the neurite-outgrowth. The neurite-outgrowth rate (%) was determined by observing the cells using a microscope by adjusting the magnitude to give about 100 cells in one visual field, counting the number of cells having neurites twice or more in length of the cell body (major axis), dividing by the total number of cells in the same visual field, and multiplying by 100. Measurements were carried out at three points for each test compound. […] In this experiment, the neurite-outgrowth rate was 5% or less when NGF was added (final concentration 10 ng/ml) without the addition of the test compound.
The method was based on Experiment 1-1, except the concentrations of the test compounds were set to three doses of 40 nM, 200 nM and 1,000 nM for evaluation method A (neurocyte growth accelerating effect), and two doses of 200 nM and 1,000 nM for evaluation method B (neurite outgrowth promoting effect). Measurements were performed in triplicate for each concentration of each test compound in both evaluation methods A and B. The result of the evaluation method A was expressed as a cell proliferation rate (%) by determined a relative percentage (%) when the value of the negative control to which the test compound was not added, was regarded as 100%. […]

PC12-HS cells [2] = assay: Evaluation method A: neurocyte growth acceleration activity (Alamar blue); format: cell-based, rat; conditions: for Action on PC12-HS growth acceleration (50 ng/ml): 3 days culture, class of cell proliferation rate vs negative control = 100%; for Cell proliferation rate (%): negative control = 100%; for neurocyte growth acceleration activity (in words): 40, 200 and 1,000 nM, comment on Table 2
Source text: as §1, §2
PC12-HS cells were subjected to tests after frozen stock cultured cells were thawed and cultured with a D-MEM medium supplemented with 10% by volume of FBS (Hereinafter, when the term “culture” is simply used, it means that the cells are statically cultured in an incubator controlled at 37° C. under 5% by volume of CO2 conditions). Cells used in the test were collected using 0.25% by weight of trypsin solution, then diluted with a D-MEM medium supplemented with 10% by volume of FBS (hereinafter referred to as “culture medium”), seeded into collagen-coated 96-well plates (commercialized by Falcon, Tokyo, Japan, “Microtest Plate, Cell Culture, Flat Bottom”) to obtain 5×10^3 cells/100 μl/well, and cultured for 24 hours (hereinafter referred to as “pre-culture”). Then, the above test samples were diluted with a culture medium, and 100 μl of diluted solution of the test compounds were added to each well so that the final concentration of the test compounds in the wells became 50 ng/ml, and the cells were cultured for another three days. On day 3, the cultures supernatant was removed from each well, 200 μl of culture medium containing 10% by volume of Alamar blue reagents (commercialized by Trek Diagnostic Systems Inc., Ohio, USA) were added to each well, and the cells were cultured for 6 hours. After culturing for 6 hours, the cells were measured for fluorescent intensity at a wavelength of 544-590 nm by “FlexStation 3”, a product name of a fluorescent plate reader (commercialized by Japan Molecular Devices Corporation, Tokyo, Japan). […] Measurements were performed for each test compound in triplicate, and the mean values were shown.
The method was based on Experiment 1-1, except the concentrations of the test compounds were set to three doses of 40 nM, 200 nM and 1,000 nM for evaluation method A (neurocyte growth accelerating effect), and two doses of 200 nM and 1,000 nM for evaluation method B (neurite outgrowth promoting effect). […]

Row | Compound | Action on PC12-HS neurite-outgrowth promotion (500 ng/ml) (PC12-HS cells [1]) | Action on PC12-HS growth acceleration (50 ng/ml) (PC12-HS cells [2]) | other results
1 | CCN1C(C)=CSC1=CC=Cc1scc(C)[n+]1CC.[I-] [NK-67] | ◯ (When the mean neurite-outgrowth rate was 25 to 44%, it was judged to be equivalent to the positive control NK-4 (“circle”)) |  | 
2 | CCCCCCCN1C(C)=CSC1=Cc1scc(C)[n+]1CCCCCCC.[I-] [NK-266] | ◯ (When the mean neurite-outgrowth rate was 25 to 44%, it was judged to be equivalent to the positive control NK-4 (“circle”)) |  | 
3 | CCN1C(=Cc2cc[n+](CC)c3ccccc23)C=Cc2ccccc21.[I-] [NK-276] | ◯ (When the mean neurite-outgrowth rate was 25 to 44%, it was judged to be equivalent to the positive control NK-4 (“circle”)) |  | 
4 | CCN1C(=CC=Cc2sc3ccc4ccccc4c3[n+]2CC)Sc2ccc3ccccc3c21.[I-] [NK-382] | ◯ (When the mean neurite-outgrowth rate was 25 to 44%, it was judged to be equivalent to the positive control NK-4 (“circle”)) |  | 
5 | CCCCN1C(C)=CSC1=Cc1scc(C)[n+]1CCCC.[I-] [NK-399] | ◯ (When the mean neurite-outgrowth rate was 25 to 44%, it was judged to be equivalent to the positive control NK-4 (“circle”)) |  | 
6 | CN(C)c1ccc(C=Cc2oc3ccccc3[n+]2C)cc1.[I-] [NK-528] | ◯ (When the mean neurite-outgrowth rate was 25 to 44%, it was judged to be equivalent to the positive control NK-4 (“circle”)) | ◯ (the relative value of 130% to 169% was judged to be equivalent to NK-4 (“circle”)) | 
7 | CC[n+]1ccccc1C=Cc1ccc(N(C)C)cc1.[I-] [NK-557] | ◯ (When the mean neurite-outgrowth rate was 25 to 44%, it was judged to be equivalent to the positive control NK-4 (“circle”)) |  | 
8 | Cc1ccc2c(c1)SC(=Cc1sc3cc(C)ccc3[n+]1C)N2C.[I-] [NK-594] | ◯ (When the mean neurite-outgrowth rate was 25 to 44%, it was judged to be equivalent to the positive control NK-4 (“circle”)) |  | 
9 | CCN1C(=CC=Cc2cc[n+](CC)c3ccccc23)Oc2ccccc21.[I-] [NK-741] | ◯ (When the mean neurite-outgrowth rate was 25 to 44%, it was judged to be equivalent to the positive control NK-4 (“circle”)) |  | 
10 | CCN1C(=Cc2oc3ccccc3[n+]2CC)Oc2ccccc21.[I-] [NK-863] | ◯ (When the mean neurite-outgrowth rate was 25 to 44%, it was judged to be equivalent to the positive control NK-4 (“circle”)) |  | 
11 | CCN1C(=Cc2ccc3ccccc3[n+]2CC)C=Cc2ccccc21.[Br-] [NK-1046] | ◯ (When the mean neurite-outgrowth rate was 25 to 44%, it was judged to be equivalent to the positive control NK-4 (“circle”)) |  | 
12 | CCN1C(=Cc2oc3ccccc3[n+]2CC)Sc2ccccc21.[I-] [NK-1049] | ◯ (When the mean neurite-outgrowth rate was 25 to 44%, it was judged to be equivalent to the positive control NK-4 (“circle”)) |  | 
13 | O=C1/C(=C\c2ccccc2)SC(=S)N1c1ccccc1 [NK-1075] |  | ◯ (the relative value of 130% to 169% was judged to be equivalent to NK-4 (“circle”)) | 
14 | CC1=NN(c2ccccc2)C(=O)/C1=C\c1ccccc1 [NK-1076] |  | ◯ (the relative value of 130% to 169% was judged to be equivalent to NK-4 (“circle”)) | 
15 | CC1=NN(c2ccccc2)C(=O)/C1=C\c1ccc(N(C)C)cc1 [NK-1107] |  | ◯ (the relative value of 130% to 169% was judged to be equivalent to NK-4 (“circle”)) | 
16 | CC(=Cc1oc2ccccc2[n+]1C)C=C1Oc2ccccc2N1C.[I-] [NK-1300] | ◯ (When the mean neurite-outgrowth rate was 25 to 44%, it was judged to be equivalent to the positive control NK-4 (“circle”)) |  | 
17 | CCN1C(=O)/C(=C\C=C\c2sc(=S)n(CC)c2O)SC1=S [NK-1451] |  | ◯ (the relative value of 130% to 169% was judged to be equivalent to NK-4 (“circle”)) | 
18 | CCN1C(=Cc2sc3ccccc3[n+]2CC)Sc2ccccc21.[Br-] [NK-1560] | ◯ (When the mean neurite-outgrowth rate was 25 to 44%, it was judged to be equivalent to the positive control NK-4 (“circle”)) |  | 
19 | CN1C(=CC2=[N+](C)c3ccccc3C2(C)C)Sc2ccccc21.[I-] [NK-1570] | ◯ (When the mean neurite-outgrowth rate was 25 to 44%, it was judged to be equivalent to the positive control NK-4 (“circle”)) |  | 
20 | CN1C(=CC2=[N+](C)c3ccccc3C2(C)C)Oc2ccccc21.[I-] [NK-1684] | ◯ (When the mean neurite-outgrowth rate was 25 to 44%, it was judged to be equivalent to the positive control NK-4 (“circle”)) |  | 
21 | O=C1/C(=C\C=C\c2sc3ccccc3c2O)Sc2ccccc21 [NK-1741] |  | ◯ (the relative value of 130% to 169% was judged to be equivalent to NK-4 (“circle”)) | 
22 | CC1(C)C(=CC=CC2=[N+](CCO)c3ccccc3C2(C)C)N(CCO)c2ccccc21.[Br-] [NK-1883] |  |  | Cell proliferation rate (%) (PC12-HS cells [2]; 1.000 nM): 87.5%; Cell proliferation rate (%) (PC12-HS cells [2]; 40 nM): 104.8%; Cell proliferation rate (%) (PC12-HS cells [2]; 200 nM): 105.1%; neurocyte growth acceleration activity (in words) (PC12-HS cells [2]): almost no growth acceleration activity; Neurite-outgrowth rate (%) (PC12-HS cells [1]; 1.000 nM): 13.3%; Neurite-outgrowth rate (%) (PC12-HS cells [1]; 200 nM): 13.3%
23 | O=S(=O)([O-])CCCN1CCSC1=CC=CC1=[N+](CCCS(=O)(=O)[O-])CCS1.[Na+] [NK-3134] |  | ◯ (the relative value of 130% to 169% was judged to be equivalent to NK-4 (“circle”)) | Cell proliferation rate (%) (PC12-HS cells [2]; 1.000 nM): 122.8%; Cell proliferation rate (%) (PC12-HS cells [2]; 40 nM): 103.9%; Cell proliferation rate (%) (PC12-HS cells [2]; 200 nM): 119.6%; neurocyte growth acceleration activity (in words) (PC12-HS cells [2]): slightly weaker activity than NK-6 and NK-36; Neurite-outgrowth rate (%) (PC12-HS cells [1]; 1.000 nM): 18.2%; Neurite-outgrowth rate (%) (PC12-HS cells [1]; 200 nM): 29.4%; neurite-outgrowth promoting activity (in words) (PC12-HS cells [1]; 200 and 1,000 nM, comment on Table 2): almost equivalent neurite-outgrowth promoting rate to NK-4
